We go through two compounds from patent publication US6106805A, “Diagnostic composition containing an LH-RH antagonist for hysteroscopy” (Asta Medica Aktiengesellschaft, priority 1996, dated 2000).

Non-standard residues stand in square brackets, D forms with d. Residues, ends and D or L forms follow the SMILES beside them. dPhe(4-Cl) = N[C@H](Cc1ccc(Cl)cc1)C(=O)O; d2Nal = N[C@H](Cc1ccc2ccccc2c1)C(=O)O; dCit = NC(=O)NCCC[C@@H](N)C(=O)O; d3Pal = N[C@H](Cc1cccnc1)C(=O)O

The conditions of series [1]: comparison with existing therapies; cited from earlier work.
The subject of the next series is myoma. The series is described as follows: Hysteroscopic and laparoscopic myoma resection after cetrorelix therapy. The series is classed as in vivo, human. The conditions noted are these: 2 months after beginning the cetrorelix therapy. The protocol:
Treatment of a patient with uterine fibrosis, which was operated on. Injection of 60 mg of cetrorelix on days 2 and 28 of the menstrual cycle.

Another series concerns E2. The series is described as follows: Clinical experiment: E2 level during cetrorelix pamoate treatment. The series is classed as in vivo, human. The procedure:
(§1) Injection of 60 mg of cetrorelix on days 2 and 28 of the menstrual cycle.

Series [2] can be described thus: Tolerability of premedication, comparison with existing therapies. It is filed as in vivo, human. The conditions noted are these: short treatment period of from 7 to 10 days.
A further series has as its system endometrium. The series is described as follows: Clinical experiment: endometrium measured by ultrasonics during cetrorelix pamoate treatment. The series is classed as in vivo, human. The procedure: as §1
Setting [3] is: Day 14 after 1st injection 60 mg.
[4] abbreviates: Day 21 after 1st injection 60 mg.
[5] abbreviates: Day 28, day of 2nd injection 60 mg.

Take `C#C[C@]1(O)CC[C@H]2[C@@H]3CCC4=Cc5oncc5C[C@]4(C)[C@H]3CC[C@@]21C` [Danazol]: the “side effects / drawbacks of existing therapies” value in series [1] was “acne, hirsutism and increase in weight”.
On to `CC(=O)N[C@H](Cc1ccc2ccccc2c1)C(=O)N[C@H](Cc1ccc(Cl)cc1)C(=O)N[C@H](Cc1cccnc1)C(=O)N[C@@H](CO)C(=O)N[C@@H](Cc1ccc(O)cc1)C(=O)N[C@H](CCCNC(N)=O)C(=O)N[C@@H](CC(C)C)C(=O)N[C@@H](CCCNC(=N)N)C(=O)N1CCC[C@H]1C(=O)N[C@H](C)C(N)=O` [cetrorelix pamoate] (Ac-[d2Nal][dPhe(4-Cl)][d3Pal]SY[dCit]LRP[dA]-NH2), for which the “blood loss at hysteroscopic and laparoscopic myoma resection” value with myoma is on record as “without any significant blood loss”. For the same compound, the E2 in the series on E2 (Day 0, day of 1st injection 60 mg (baseline)) was 25 pg/mL; in the series with E2 (Day 7 after 1st injection 60 mg), below 5 pg/mL; with E2 (setting [3]), 17 pg/mL; with E2 (setting [4]), 40 pg/mL; with E2 (setting [5]) it was 88 pg/mL; in the series with E2 (Day 42, after 2 injections of 60 mg), 25 pg/mL. Moreover, the E2 in the series on E2 (Day 55, end of the study) came out at 73 pg/mL; in the series with E2 (Day of operation (07.05.96)), 114 pg/mL. Further, in series [2], the side effects entry was “no side effects”. For the same compound, in the series on endometrium (60 mg on days 2 and 28 of the menstrual cycle, measured by ultrasonics), the “endometrial growth during the treatment” value is on record as “did not exhibit any growth”. Besides, the Endometrium in the series on endometrium (Day 7 after 1st injection 60 mg, patient with uterine fibrosis) is 2 mm; with endometrium (setting [3]), “flat/even”; in the series with endometrium (setting [4]), 3.1 mm; in the series on endometrium (setting [5]), “flat/even”; in the series with endometrium (Day 42, after 2 injections of 60 mg (Day 0, Day 28)), “flat/even”; in the series on endometrium (Day 55, end of the study, after 2 injections of 60 mg) it was “flat/even”. Also, in the series on endometrium (after injecting), the “onset of decrease of the thickness of the endometrial layer” value is “begins to decrease immediately”.
